Data published in PubChem BioAssay AID1963826 (Molecular Pharmacology Branch, DTP, NCI, 2024).

System: 926638-142-R-J1-PDC complex spheroid viability
Assay: Anticancer human tumor 926638-142-R-J1-PDC patient-derived endometrial carcinoma cell line growth inhibition [POLQ]
Conditions: for IC50: curve of first compound; for viability, T/C: stronger effect = lower value
How it was run: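 Complex spheroid viability model combining PDC tumour cells with endothelial (HUVEC) and MSC stromal cells. Novobiocin, ART-558 or RP6685 were tested singly and in combination with standard and investigational anticancer drugs. Each was titrated in half-log steps from near clinical Cmax, or from 10 microM where Cmax was unknown.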

[1] = second compound 0.0316 µM, first compound 0.0316 µM
[2] = second compound 0.0316 µM, first compound 0.1 µM
[3] = second compound 0.0316 µM, first compound 0.316 µM
[4] = second compound 0.0316 µM, first compound 1 µM
[5] = second compound 0.0316 µM, first compound 3.16 µM
[6] = second compound 0.0316 µM, first compound 10 µM
[7] = second compound 0.1 µM, first compound 0.0316 µM
[8] = second compound 0.1 µM, first compound 0.1 µM
[9] = second compound 0.1 µM, first compound 0.316 µM
[10] = second compound 0.1 µM, first compound 1 µM
[11] = second compound 0.1 µM, first compound 3.16 µM
[12] = second compound 0.1 µM, first compound 10 µM
[13] = second compound 0.316 µM, first compound 0.0316 µM
[14] = second compound 0.316 µM, first compound 0.1 µM
[15] = second compound 0.316 µM, first compound 0.316 µM
[16] = second compound 0.316 µM, first compound 1 µM
[17] = second compound 0.316 µM, first compound 3.16 µM
[18] = second compound 0.316 µM, first compound 10 µM
[19] = second compound 1 µM, first compound 0.0316 µM
[20] = second compound 1 µM, first compound 0.1 µM
[21] = second compound 1 µM, first compound 0.316 µM
[22] = second compound 1 µM, first compound 1 µM
[23] = second compound 1 µM, first compound 3.16 µM
[24] = second compound 1 µM, first compound 10 µM
[25] = second compound 3.16 µM, first compound 0.0316 µM
[26] = second compound 3.16 µM, first compound 0.1 µM
[27] = second compound 3.16 µM, first compound 0.316 µM
[28] = second compound 3.16 µM, first compound 1 µM
[29] = second compound 3.16 µM, first compound 3.16 µM
[30] = second compound 3.16 µM, first compound 10 µM
[31] = second compound 10 µM, first compound 0.0316 µM
[32] = second compound 10 µM, first compound 0.1 µM
[33] = second compound 10 µM, first compound 0.316 µM
[34] = second compound 10 µM, first compound 1 µM
[35] = second compound 10 µM, first compound 3.16 µM
[36] = second compound 10 µM, first compound 10 µM
[37] = second compound 0.0316 µM, first compound 0.00316 µM
[38] = second compound 0.0316 µM, first compound 0.01 µM
[39] = second compound 0.1 µM, first compound 0.00316 µM
[40] = second compound 0.1 µM, first compound 0.01 µM
[41] = second compound 0.316 µM, first compound 0.00316 µM
[42] = second compound 0.316 µM, first compound 0.01 µM
[43] = second compound 1 µM, first compound 0.00316 µM
[44] = second compound 1 µM, first compound 0.01 µM
[45] = second compound 3.16 µM, first compound 0.00316 µM
[46] = second compound 3.16 µM, first compound 0.01 µM
[47] = second compound 10 µM, first compound 0.00316 µM
[48] = second compound 10 µM, first compound 0.01 µM
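Further: spheroids exposed to drugs for one week before readout.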
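Wherever viability, T/C is given: percent viability relative to DMSO vehicle control wells set as 100%.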

CC1COCCN1c1cc(-c2ccnn2C)c2ccnc(-c3ccn[nH]3)c2n1 (stereo not drawn) + Cc1cccc(N(C)C(=O)C2C(O)CCN2c2nc(C)cc(C(F)(F)F)c2C#N)c1
IC50 (second compound 0.0316 µM): 388 nM | IC50 (second compound 0.1 µM): 340 nM | IC50 (second compound 0.316 µM): 298 nM | IC50 (second compound 1 µM): 414 nM | IC50 (second compound 3.16 µM): 433 nM | IC50 (second compound 10 µM): 313 nM | viability, T/C [1]: 94.8% | viability, T/C [2]: 75.6% | viability, T/C [3]: 58% | viability, T/C [4]: 27.5% | viability, T/C [5]: 12.6% | viability, T/C [6]: 8.02% | viability, T/C [7]: 106% | viability, T/C [8]: 81.6% | viability, T/C [9]: 51.1% | viability, T/C [10]: 28% | viability, T/C [11]: 12.6% | viability, T/C [12]: 7.36% | viability, T/C [13]: 106% | viability, T/C [14]: 76.7% | viability, T/C [15]: 52.3% | viability, T/C [16]: 23.1% | viability, T/C [17]: 12.2% | viability, T/C [18]: 10.2% | viability, T/C [19]: 83.7% | viability, T/C [20]: 99.3% | viability, T/C [21]: 56.1% | viability, T/C [22]: 24.1% | viability, T/C [23]: 12.2% | viability, T/C [24]: 8.86% | viability, T/C [25]: 73.2% | viability, T/C [26]: 77.7% | viability, T/C [27]: 53.8% | viability, T/C [28]: 32.8% | viability, T/C [29]: 10.1% | viability, T/C [30]: 6.72% | viability, T/C [31]: 90.7% | viability, T/C [32]: 76.5% | viability, T/C [33]: 50.2% | viability, T/C [34]: 23.3% | viability, T/C [35]: 10.8% | viability, T/C [36]: 7.42%

CCc1c2c(nc3ccc(O)cc13)-c1cc3c(c(=O)n1C2)COC(=O)[C@]3(O)CC + Nc1ccc(C#CCN(C(=O)Cc2ncc(C(F)(F)F)cc2C(F)(F)F)c2ccc(F)cc2)nn1
IC50 (second compound 0.0316 µM): 8.14 nM | IC50 (second compound 0.1 µM): 10.3 nM | IC50 (second compound 0.316 µM): 13.7 nM | IC50 (second compound 1 µM): 11.6 nM | IC50 (second compound 3.16 µM): 7.09 nM | IC50 (second compound 10 µM): 8.56 nM | viability, T/C [37]: 54.4% | viability, T/C [38]: 52.5% | viability, T/C [1]: 32.8% | viability, T/C [2]: 27.6% | viability, T/C [3]: 15.2% | viability, T/C [4]: 11.2% | viability, T/C [39]: 67.3% | viability, T/C [40]: 49.8% | viability, T/C [7]: 36.5% | viability, T/C [8]: 24.9% | viability, T/C [9]: 17.3% | viability, T/C [10]: 10.2% | viability, T/C [41]: 69.9% | viability, T/C [42]: 56.9% | viability, T/C [13]: 33.7% | viability, T/C [14]: 24.6% | viability, T/C [15]: 14.9% | viability, T/C [16]: 10.4% | viability, T/C [43]: 60% | viability, T/C [44]: 53.9% | viability, T/C [19]: 35.4% | viability, T/C [20]: 24.6% | viability, T/C [21]: 15.4% | viability, T/C [22]: 10.5% | viability, T/C [45]: 60.3% | viability, T/C [46]: 46.7% | viability, T/C [25]: 30.6% | viability, T/C [26]: 20.6% | viability, T/C [27]: 17.6% | viability, T/C [28]: 7.92% | viability, T/C [47]: 64.2% | viability, T/C [48]: 47.4% | viability, T/C [31]: 34.5% | viability, T/C [32]: 23.1% | viability, T/C [33]: 15.3% | viability, T/C [34]: 10.2%

CC[C@@]1(O)C(=O)OCc2c1cc1n(c2=O)Cc2cc3c(CN(C)C)c(O)ccc3nc2-1 + Cc1cccc(N(C)C(=O)C2C(O)CCN2c2nc(C)cc(C(F)(F)F)c2C#N)c1
IC50 (second compound 0.0316 µM): 68.9 nM | IC50 (second compound 0.1 µM): 74.9 nM | IC50 (second compound 0.316 µM): 73.8 nM | IC50 (second compound 1 µM): > 100 nM | IC50 (second compound 3.16 µM): > 100 nM | IC50 (second compound 10 µM): > 100 nM | viability, T/C (second compound 0.0316 µM, first compound 0.000316 µM): 100% | viability, T/C (second compound 0.0316 µM, first compound 0.001 µM): 91.2% | viability, T/C [37]: 74.6% | viability, T/C [38]: 70.4% | viability, T/C [1]: 63.1% | viability, T/C [2]: 43.4% | viability, T/C (second compound 0.1 µM, first compound 0.000316 µM): 86.4% | viability, T/C (second compound 0.1 µM, first compound 0.001 µM): 94.6% | viability, T/C [39]: 87.9% | viability, T/C [40]: 76.8% | viability, T/C [7]: 64.7% | viability, T/C [8]: 45.2% | viability, T/C (second compound 0.316 µM, first compound 0.000316 µM): 94.3% | viability, T/C (second compound 0.316 µM, first compound 0.001 µM): 88.9% | viability, T/C [41]: 70.4% | viability, T/C [42]: 76.3% | viability, T/C [13]: 57.4% | viability, T/C [14]: 46.3% | viability, T/C (second compound 1 µM, first compound 0.000316 µM): 93.7% | viability, T/C (second compound 1 µM, first compound 0.001 µM): 74% | viability, T/C [43]: 88.8% | viability, T/C [44]: 68.3% | viability, T/C [19]: 68% | viability, T/C [20]: 50.4% | viability, T/C (second compound 3.16 µM, first compound 0.000316 µM): 78.3% | viability, T/C (second compound 3.16 µM, first compound 0.001 µM): 99% | viability, T/C [45]: 80.7% | viability, T/C [46]: 63% | viability, T/C [25]: 61.2% | viability, T/C [26]: 47% | viability, T/C (second compound 10 µM, first compound 0.000316 µM): 97.9% | viability, T/C (second compound 10 µM, first compound 0.001 µM): 71.1% | viability, T/C [47]: 75.7% | viability, T/C [48]: 68% | viability, T/C [31]: 62.2% | viability, T/C [32]: 47.5%

COc1ccc([C@@H](O)c2cc(-c3ncnc4cc(N5CCOCC5)ccc34)c(F)cc2Cl)nn1 + Cc1cccc(N(C)C(=O)C2C(O)CCN2c2nc(C)cc(C(F)(F)F)c2C#N)c1
IC50 (second compound 0.0316 µM): 459 nM | IC50 (second compound 0.1 µM): 546 nM | IC50 (second compound 0.316 µM): 399 nM | IC50 (second compound 1 µM): 493 nM | IC50 (second compound 3.16 µM): 484 nM | IC50 (second compound 10 µM): 415 nM | viability, T/C [1]: 76.7% | viability, T/C [2]: 93.2% | viability, T/C [3]: 58.1% | viability, T/C [4]: 26.9% | viability, T/C [5]: 12.9% | viability, T/C [6]: 7.35% | viability, T/C [7]: 99% | viability, T/C [8]: 80.7% | viability, T/C [9]: 74.2% | viability, T/C [10]: 24.3% | viability, T/C [11]: 11.5% | viability, T/C [12]: 9.24% | viability, T/C [13]: 77.3% | viability, T/C [14]: 71.1% | viability, T/C [15]: 57.2% | viability, T/C [16]: 24.6% | viability, T/C [17]: 13.3% | viability, T/C [18]: 7.22% | viability, T/C [19]: 107% | viability, T/C [20]: 89.7% | viability, T/C [21]: 65.9% | viability, T/C [22]: 26.8% | viability, T/C [23]: 14.7% | viability, T/C [24]: 9.12% | viability, T/C [25]: 83.5% | viability, T/C [26]: 88.1% | viability, T/C [27]: 57.8% | viability, T/C [28]: 32.7% | viability, T/C [29]: 12.2% | viability, T/C [30]: 9.15% | viability, T/C [31]: 76.5% | viability, T/C [32]: 94% | viability, T/C [33]: 56% | viability, T/C [34]: 24% | viability, T/C [35]: 12.9% | viability, T/C [36]: 9.62%
